Earlier results on 2 molecules are cited in patent US5008416A, “Organogermanium compound, process for the preparation of same as well as use thereof” (Sanwa Kagaku Kenkyusho Co., Ltd., priority 1989, dated 1991).

The conditions of data set [1]: Jap. Pat. No. Sho 61-151123(A), U.S. Pat. No. 4,889,715, EP 0186505; cited from earlier work.
For data set [2] the following is noted: Cancer Res., Vol. 42, page 2852 (1982); cited from earlier work.

Consider 3-oxygermylpropionic acid polymer, for which, in data set [1], the “Immunomodulating activity (result in words)” value was “shows an excellent immunomodulating activity”.
As for `C[CH2][Ge]1([CH2]C)[CH2]CC2(CCN(CCCN(C)C)C2)C[CH2]1` [Spirogermanium], the “Anti-cancer or antitumor activity (result in words)” value in data set [2] is given as “shows an anti-cancer or antitumor activity”.
